{"source": "patent US5843955A", "about": "“Compound LK6-A” (Kyowa Hakko Kogyo Co., Ltd., priority 1995, dated 1998)", "key": {"L1210 cell": {"tested_on": "L1210 cell", "conditions": "Tetrahedron Letters, 31, 3271 (1990); cited from earlier work"}, "[1]": {"tested_on": "Nippostrongylus brasiliensis", "conditions": "U.S. Pat. No. 4,959,370; J. Am. Chem. Soc., 112, 1 (1990); cited from earlier work"}, "reverse transcriptase": {"tested_on": "reverse transcriptase", "conditions": "U.S. Pat. No. 4,959,370; J. Am. Chem. Soc., 112, 1 (1990); cited from earlier work"}, "T cells": {"tested_on": "T cells", "experiment": "Growth inhibition against T cells in murine mixed lymphocyte reaction", "assay_type": "cell-based", "conditions": "Mus musculus, T-cell; 72 hours at 37° C., [^3 H]Thymidine incorporation (added 18 hours before end); read-out: 50% inhibitory concentration (IC50) against the growth of T cells in murine mixed lymphocyte reaction", "procedure": "Growth inhibition against T cells in murine mixed lymphocyte reaction\nLymph node was aseptically excised from a B10.BR mouse (Japan SLC Inc.) with a solution comprising Hanks' […] salt solution (HBSS, Gibco) and 2.5% fetal calf serum (FCS, Gibco) (hereinafter referred to as HBSS-FCS) and resuspended into a culture medium (RPMI 1640, Nissui) containing 10% fetal calf serum (FCS, Gibco), 1% 200 mM L-Gultamine (Gibco), 1% Penicillin-Streptoymycin liquid (Gibco), 5% NCTC-109 (Gibco), 1% 1M HEPES (Gibco), 7.5% NaHCO3 (SIGMA) and 0.1% 50 mM 2-mercaptoethanol (Nakarai) (hereinafter referred to as RPMI 1640-FCS) to prepared a single cell suspension to give a density of 3×10^6 cells/ml. […]\n[^3 H]Thymidine was added to the wells in an amount of 1.0 μCi/well 18 hours before the end of each incubation. […] A toluene scintillator was added to the cells, and the amount of [^3 H]Thymidine radioactivity incorporated into the cells was determined using a liquid scintillation counter. The T cell growth inhibition rate was calculated according to the following equation. […]\nC: Amount of [^3 H]Thymidine radioactivity incorporated into the mixed cell suspension\nT: Amount of [^3 H]Thymidine radioactivity incorporated into the LK6-A-treated mixed cell suspension\nA: Amount of [^3 H]Thymidine radioactivity incorporated into only the B10.BR murine lymph node cells. […]"}, "Solubility": {"experiment": "Solubility", "assay_type": "physicochemical"}}, "data": [{"compound": "plakinidine A", "values": [{"measurement": "cytotoxic activity against the L1210 cell", "setting": "L1210 cell", "result": "cytotoxic activity"}, {"measurement": "activity against a parasite Nippostrongylus brasiliensis", "setting": "[1]", "result": "activity"}, {"measurement": "reverse transcriptase inhibitory activity", "setting": "reverse transcriptase", "result": "reverse transcriptase inhibitory activity"}]}, {"compound": "CNc1c2ncc3c4ccccc4[nH]c(c4nccc(=O)c14)c23", "note": "[plakinidine C]", "values": [{"measurement": "cytotoxic activity against the L1210 cell", "setting": "L1210 cell", "result": "cytotoxic activity"}]}, {"compound": "CO/C=C/C(=O)c1cc2c3c(c(N)cc(NC(C)=O)c3n1)N=C2", "note": "[LK6-A]", "values": [{"measurement": "IC50", "setting": "T cells", "result": 9, "unit": "nM"}, {"measurement": "Solubility", "setting": "Solubility; chloroform", "result": "sparingly soluble"}, {"measurement": "Solubility", "setting": "Solubility; dimethylsulfoxide (DMSO)", "result": "Soluble"}, {"measurement": "Solubility", "setting": "Solubility; hexane", "result": "insoluble"}, {"measurement": "Solubility", "setting": "Solubility; methanol", "result": "sparingly soluble"}, {"measurement": "Solubility", "setting": "Solubility; water", "result": "sparingly soluble"}]}, {"compound": "plakinidine B", "values": [{"measurement": "cytotoxic activity against the L1210 cell", "setting": "L1210 cell", "result": "cytotoxic activity"}, {"measurement": "activity against a parasite Nippostrongylus brasiliensis", "setting": "[1]", "result": "activity"}]}]}
